The subject of data set [1] is ionotropic excitatory aminoacid receptors. The note with it: preferentially at glycine co-agonist site of the NMDA receptor; cited from earlier work.
The test system of data set [2] is CNS. The conditions noted are these: cited from earlier work.
For data set [3], the target named is T1, kynurenine-3-hydroxylase (Rattus norvegicus, UniProt O88867). Put plainly: Kynurenine-3-hydroxylase Assay in the Rat Brain. The class given is biochemical. Also noted: from tissue. The note with it: rat brain homogenate, 50 μM L-kynurenine, 60 min incubation, pH 7.5; read-out: Enzyme Inhibition (Brain) IC50. As to the method:
Kynurenine-3-hydroxylase Assay in the Rat Brain
Brain was homogenized in ice-cold 0.32 M sucrose and centrifuged at 12000×g for 30 min at 4° C. The pellet was washed three times with 0.32 M sucrose by centrifugation and suspended in 0.14 M KCl in 20 mM K-phosphate buffer at pH 7 (1 g tissue in 2 ml buffer).
The reaction mixture contained: 75 μl of suspended homogenate; 100 μl of substrate solution containing 50 mM K-phosphate buffer pH 7.5, 2 mM MgCl2, 0.4 mM NADPH, 50 μM L-kynurenine (final concentration), and 25 μl of different concentrations of inhibitor solutions. The reaction was stopped by addition of 200 μl of 1 M HClO4 after 60 min incubation. L-3-hydroxykynurenine formed was quantified by HPLC with coulometric detection at a working voltage of +0.2 V. The column was a 10 cm C18 reversed phase (3 μm. The mobile phase consisted of 950 ml distilled water, 20 ml acetonitrile, 9 ml triethylamine, 5.9 ml phosphoric acid, 100 mg sodium EDTA and 1.5 g heptanesulfonic acid. The flow rate was 1 ml/min.

Data set [4] addresses T1, kynurenine-3-hydroxylase. Nature of the data set: Kynurenine-3-hydroxylase Assay in the Rat Liver. The data set is classed as biochemical. On the set-up: Rat liver mitochondrial extract was used as enzymatic preparation for this assay; from tissue; host or cells: rat liver mitochondrial extract. The note with it: rat liver mitochondrial extract, 0.025 mM L-kynurenine, 37° C., 30 min, pH 8.1; read-out: Enzyme Inhibition (Liver) IC50. How it is done: Kynurenine-3-hydroxylase Assay in the Rat Liver
The assay for kynurenine 3-hydroxylase was based on the enzymatic synthesis of tritiated water during the hydroxylation reaction. Radiolabeled water was quantified following selective adsorption of the isotopic substrate and its metabolite with activated charcoal.
Rat liver mitochondrial extract was used as enzymatic preparation for this assay.
The assay for kynurenine 3-hydroxylase activity was carried out at 37° C. for a time of 30 min. The reaction mixture of a total volume of […] was constituted of […] of suspended extract, 100 mM Tris/Cl^- buffer pH 8.1, 10 mM EDTA, 100 mM KCl, 0.8 mM NADPH, 0.025 mM L-kynurenine, […] L-(3,5-^3 H)Kynurenine (10 Ci/mmol) and […] of different concentration of inhibitor solutions. After the incubation the reaction was terminated by the addition of 1 mL of 7.5% (w/v) activated charcoal, vortexed and centrifugated for 7 min.
A […] aliquot of supernatant was counted by scintillation spectroscopy in 5 ml of liquid scintillation.

Data set [5] relates to N-methyl-D-aspartate (NMDA) receptor. The note with it: cited from earlier work.
In data set [6] the test system is neuronal cell cultures. The conditions noted are these: relatively low concentrations, prolonged period of time or in combination with glutamate; cited from earlier work.

Each structure is given as a SMILES string.

T1 sequence (O88867 whole entry): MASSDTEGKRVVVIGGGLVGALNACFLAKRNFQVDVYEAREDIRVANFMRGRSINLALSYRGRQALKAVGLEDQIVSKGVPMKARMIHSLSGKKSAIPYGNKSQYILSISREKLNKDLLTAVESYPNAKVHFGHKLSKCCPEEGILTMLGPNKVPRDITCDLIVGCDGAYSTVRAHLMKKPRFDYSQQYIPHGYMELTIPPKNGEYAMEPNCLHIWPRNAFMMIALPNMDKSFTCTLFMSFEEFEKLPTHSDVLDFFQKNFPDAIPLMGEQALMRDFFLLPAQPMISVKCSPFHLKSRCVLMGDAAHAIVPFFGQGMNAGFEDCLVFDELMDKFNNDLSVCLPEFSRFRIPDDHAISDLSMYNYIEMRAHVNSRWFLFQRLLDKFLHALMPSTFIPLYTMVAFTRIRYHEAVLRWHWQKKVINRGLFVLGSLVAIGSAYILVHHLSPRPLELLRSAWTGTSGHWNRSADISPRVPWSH

On to `O=C(O)c1cc(=O)c2ccccc2[nH]1` [KYNA, kynurenic acid], for which the “activity at ionotropic excitatory aminoacid receptors” value in data set [1] is on record as “broad spectrum antagonist”. In addition, the “prevention of excitotoxic neuronal damage evoked by QUIN” value in data set [2] (co-injected with QUIN) is listed as “able to prevent the excitotoxic neuronal damage”. Moreover, the “effect when injected in the CNS” value in data set [2] is “neuroprotective agent”. Also, in data set [2] (several animal models), the “anticonvulsant and neuroprotective properties” value was “anticonvulsant and neuroprotective properties”.

A word on the IC50: it is the concentration at which inhibition is half-maximal. As for `O=C(O)/C=C/C(=O)c1ccc(Cl)c(Cl)c1` [PNU 157694, (E)-4-(3',4'-dichlorophenyl)-4-oxo-2-butenoic acid], the 50% inhibitory concentration (IC50) in data set [3] was found to be 0.9 µM; in data set [4] it was 10.4 µM.

Turning to `O=C(O)/C=C/C(=O)c1ccc(F)c(F)c1` [PNU 157961, (E)-4-(3',4'-difluorophenyl)-4-oxo-2-butenoic acid], the figures for the concentration for half-maximal inhibition (IC50) in data set [3] and in data set [4] were 1.1 µM and 21.1 µM, respectively.

Take `O=C(O)/C=C/C(=O)c1cccc(F)c1` [PNU 158388, (E)-4-(3'-fluorophenyl)-4-oxo-2-butenoic acid]: the half-inhibitory concentration (IC50) in data set [3] came out at 21.8 µM; in data set [4], 38.6 µM.

`O=C(O)/C=C/C(=O)c1cccc([N+](=O)[O-])c1` [PNU 158389, (E)-4-(3'-nitrophenyl)-4-oxo-2-butenoic acid]: the figures for the IC50 in data set [3] and in data set [4] were 16.6 µM and 30.4 µM, respectively.

Turning to `O=C(O)/C=C/C(=O)c1cccc(Cl)c1` [PNU 158390, (E)-4-(3'-chlorophenyl)-4-oxo-2-butenoic acid], the concentration for half-maximal inhibition (IC50) is 20.4 µM in data set [3] and 21.9 µM in data set [4].

As for `COC(=O)/C(O)=C\C(=O)c1ccc(Cl)c(Cl)c1` [PNU 158775, Methyl-(E)-2-hydroxy-4-(3',4'-dichlorophenyl)-4-oxo-2-butenoate], the IC50 in data set [3] worked out at 0.95 µM; in data set [4], 6.9 µM.

For `O=C(O)/C(O)=C\C(=O)c1ccc(Cl)c(Cl)c1` [PNU 158776, (E)-2-hydroxy-4-(3',4'-dichlorophenyl)-4-oxo-2-butenoic acid], the half-maximal inhibitory concentration (IC50) is 0.3 µM in data set [3] and 1.8 µM in data set [4].

Regarding `C/C(=C\C(=O)c1ccc(Cl)c(Cl)c1)C(=O)O` [PNU 158785, (E)-2-methyl-4-(3',4'-dichlorophenyl)-4-oxo-2-butenoic acid], the IC50 in data set [3] came to 3.4 µM; in data set [4], 23.5 µM.

As to `CC(=CC(=O)O)C(=O)c1ccc(Cl)c(Cl)c1` [PNU 161213, 3-methyl-4-(3',4'-dichlorophenyl)-4-oxo-2-butenoic acid], the IC50 in data set [4] is 26.2 µM.

Turning to `CCOC(=O)/C(O)=C\C(=O)c1ccc(Cl)c(Cl)c1` [PNU 161215, Ethyl-(E)-2-hydroxy-4-(3',4'-dichlorophenyl)-4-oxo-2-butenoate], the half-maximal inhibitory concentration (IC50) in data set [3] was 2.01 µM; in data set [4], 1.9 µM.

With `O=C(O)/C(O)=C\C(=O)c1cccc(Cl)c1` [PNU 161216, (E)-2-hydroxy-4-(3'-chlorophenyl)-4-oxo-2-butenoic acid], the results for the IC50 in data set [3] and in data set [4] were 6.9 µM and 1.2 µM, respectively.

Regarding `O=C(O)/C(O)=C\C(=O)c1cccc(F)c1` [PNU 161217, (E)-2-hydroxy-4-(3'-fluorophenyl)-4-oxo-2-butenoic acid], the IC50 in data set [3] was found to be 0.97 µM; in data set [4], 2.8 µM.

Regarding `O=C(O)/C(O)=C\C(=O)c1ccc(F)c(F)c1` [PNU 161219, (E)-2-hydroxy-4-(3',4'-difluorophenyl)-4-oxo-2-butenoic acid], the IC50 in data set [3] turned out to be 0.44 µM; in data set [4], 1.2 µM.

With `O=C(O)/C(O)=C\C(=O)c1ccc(Cl)cc1` [PNU 166909, (E)-2-hydroxy-4-(4'-chlorophenyl)-4-oxo-2-butenoic acid], the IC50 in data set [4] was 8.9 µM.

Turning to `O=C(O)C=C(Cc1ccccc1)C(=O)c1ccc(Cl)c(Cl)c1` [PNU 167535, 3-benzyl-4-(3',4'-dichlorophenyl)-4-oxo-2-butenoic acid], in data set [4], the IC50 was 12.3 µM.

As for `O=C(O)c1cccnc1C(=O)O` [QUIN, quinolinic acid], the “activity at NMDA receptor” value in data set [5] is “highly selective agonist”. In data set [2] (in vivo), the “in vivo convulsions and lesions” value is “produce convulsions and axon sparing lesions”. For the same compound, the “effect when injected in the CNS” value in data set [2] was “neurotoxin”. Also, the “neurotoxicity in neuronal cell cultures” value in data set [6] was “neurotoxic”.
